Results reported in patent US20020111274A1, “1-alkyl-3-[1-(substituted phenyl) benzotriazol-6-yl] uracils” (BASF Aktiengesellschaft, priority 2000, published 2002).

Tests used:
ABUTH Velvetleaf = assay: Preemergence herbicidal evaluation, ABUTH; assay type: in vivo, Abutilon theophrasti, Medic.; set-up: scale not given here; settings: preemergence
How it was run: (§1)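 Preemergence soil spray: aqueous acetone, ~0.013–0.800 kg/ha, applied right after sowing (seed/potting-soil mix over ~1 in soil). Greenhouse, routine watering. Scored 4–5 wk post-treatment on a rating scale.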

AMBEL Ragweed, Common = assay: Preemergence herbicidal evaluation, AMBEL; assay type: in vivo, Ambrosia artemisifolia, L.; set-up: scale not given here; settings: preemergence
How it was run: as §1

CASOB Sicklepod = assay: Preemergence herbicidal evaluation, CASOB; assay type: in vivo, Cassia obtusifolia, L.; set-up: scale not given here; settings: preemergence
How it was run: as §1

[1] = system: CHEAL Lambsquarters, Common; assay: Preemergence herbicidal evaluation, CHEAL; assay type: in vivo, Chenopodium album, L.; set-up: scale not given here; settings: preemergence
How it was run: as §1

ECHOG Barnyardgrass = assay: Preemergence herbicidal evaluation, ECHOG; assay type: in vivo, Echinochloa crus-galli, (L.) Beau; set-up: scale not given here; settings: preemergence
How it was run: as §1

GALAP Galium = assay: Preemergence herbicidal evaluation, GALAP; assay type: in vivo, Galium aparine; set-up: scale not given here; settings: preemergence
How it was run: as §1

[2] = system: IPOHE Morningglory, Ivyleaf; assay: Preemergence herbicidal evaluation, IPOHE; assay type: in vivo, Ipomoea hederacea, (L.) Jacq.; set-up: scale not given here; settings: preemergence
How it was run: as §1

SETVI Foxtail, Green = assay: Preemergence herbicidal evaluation, SETVI; assay type: in vivo, Setaria viridis, (L.) Beau; set-up: scale not given here; settings: preemergence
How it was run: as §1

GLXMAW Soybean, Williams = assay: Preemergence herbicidal evaluation, GLXMAW; assay type: in vivo, Glycine max, (L.) Merr. cv Williams; set-up: scale not given here; settings: preemergence
How it was run: as §1

[3] = system: TRZAWR Wheat, Winter, cv Riband; assay: Preemergence herbicidal evaluation, TRZAWR; assay type: in vivo, Triticum aestivum; set-up: scale not given here; settings: preemergence
How it was run: as §1

ORYSAT Rice, Tebonnet = assay: Preemergence herbicidal evaluation, ORYSAT; assay type: in vivo, Oryza sativa, (L.); set-up: scale not given here; settings: preemergence
How it was run: as §1

ZEAMX Corn, Field = assay: Preemergence herbicidal evaluation, ZEAMX; assay type: in vivo, Zea mays, L. (Sammel-Bezeichnung); set-up: scale not given here; settings: preemergence
How it was run: as §1

Question: Which ABUTH herbicidal rating (ABUTH Velvetleaf; rate 0.016 kg/ha) does the source give for COc1ccc(C)cc1-n1nnc2cc(F)c(-n3c(=O)cc(C(F)(F)F)n(C)c3=O)cc21 [Example 18, 3-[5-fluoro-1-(2-methoxy-5-methylphenyl)-1H-1,2,3-benzotriazol-6-yl]-1-methyl-6-(trifluoromethyl)-2,4(1H,3H)-pyrimidinedione] here?
Answer: The ABUTH herbicidal rating was 6.0.

Question: What about the ABUTH herbicidal rating (ABUTH Velvetleaf; rate 0.032 kg/ha) of the same compound?
Answer: Its ABUTH herbicidal rating is 9.0.

Question: And the ABUTH herbicidal rating (ABUTH Velvetleaf; rate 0.062 kg/ha)?
Answer: Its ABUTH herbicidal rating is 9.0.

Question: What about the ABUTH herbicidal rating (ABUTH Velvetleaf; rate 0.125 kg/ha) of the same compound?
Answer: The ABUTH herbicidal rating was 9.0.

Question: And the AMBEL herbicidal rating (AMBEL Ragweed, Common; rate 0.016 kg/ha)?
Answer: Its AMBEL herbicidal rating is 4.0.

Question: And the AMBEL herbicidal rating (AMBEL Ragweed, Common; rate 0.032 kg/ha)?
Answer: The AMBEL herbicidal rating was 6.0.

Question: And the AMBEL herbicidal rating (AMBEL Ragweed, Common; rate 0.062 kg/ha)?
Answer: Its AMBEL herbicidal rating is 9.0.

Question: And the AMBEL herbicidal rating (AMBEL Ragweed, Common; rate 0.125 kg/ha)?
Answer: The AMBEL herbicidal rating was 8.0.

Question: What about the CASOB herbicidal rating (CASOB Sicklepod; rate 0.016 kg/ha) of the same compound?
Answer: The CASOB herbicidal rating was 2.5.

Question: What about the CASOB herbicidal rating (CASOB Sicklepod; rate 0.032 kg/ha) of the same compound?
Answer: Its CASOB herbicidal rating is 0.0.

Question: What about the CASOB herbicidal rating (CASOB Sicklepod; rate 0.062 kg/ha) of the same compound?
Answer: Its CASOB herbicidal rating is 0.5.

Question: What about the CASOB herbicidal rating (CASOB Sicklepod; rate 0.125 kg/ha) of the same compound?
Answer: Its CASOB herbicidal rating is 5.0.

Question: What about the CHEAL herbicidal rating ([1]; rate 0.016 kg/ha) of the same compound?
Answer: The CHEAL herbicidal rating was 9.0.

Question: What about the CHEAL herbicidal rating ([1]; rate 0.032 kg/ha) of the same compound?
Answer: The CHEAL herbicidal rating was 9.0.

Question: And the CHEAL herbicidal rating ([1]; rate 0.062 kg/ha)?
Answer: The CHEAL herbicidal rating was 9.0.

Question: What about the CHEAL herbicidal rating ([1]; rate 0.125 kg/ha) of the same compound?
Answer: Its CHEAL herbicidal rating is 9.0.

Question: What about the ECHCG herbicidal rating (ECHOG Barnyardgrass; rate 0.016 kg/ha) of the same compound?
Answer: Its ECHCG herbicidal rating is 6.0.

Question: And the ECHCG herbicidal rating (ECHOG Barnyardgrass; rate 0.032 kg/ha)?
Answer: Its ECHCG herbicidal rating is 8.0.

Question: What about the ECHCG herbicidal rating (ECHOG Barnyardgrass; rate 0.062 kg/ha) of the same compound?
Answer: The ECHCG herbicidal rating was 9.0.

Question: And the ECHCG herbicidal rating (ECHOG Barnyardgrass; rate 0.125 kg/ha)?
Answer: Its ECHCG herbicidal rating is 9.0.

Question: And the GALAP herbicidal rating (GALAP Galium; rate 0.032 kg/ha)?
Answer: Its GALAP herbicidal rating is 1.0.

Question: What about the GALAP herbicidal rating (GALAP Galium; rate 0.062 kg/ha) of the same compound?
Answer: The GALAP herbicidal rating was 5.0.

Question: And the GALAP herbicidal rating (GALAP Galium; rate 0.125 kg/ha)?
Answer: Its GALAP herbicidal rating is 9.0.

Question: What about the IPOHE herbicidal rating ([2]; rate 0.016 kg/ha) of the same compound?
Answer: The IPOHE herbicidal rating was 7.5.

Question: What about the IPOHE herbicidal rating ([2]; rate 0.032 kg/ha) of the same compound?
Answer: The IPOHE herbicidal rating was 9.0.

Question: And the IPOHE herbicidal rating ([2]; rate 0.062 kg/ha)?
Answer: The IPOHE herbicidal rating was 8.0.

Question: What about the IPOHE herbicidal rating ([2]; rate 0.125 kg/ha) of the same compound?
Answer: Its IPOHE herbicidal rating is 9.0.

Question: And the SETVI herbicidal rating (SETVI Foxtail, Green; rate 0.016 kg/ha)?
Answer: Its SETVI herbicidal rating is 9.0.

Question: What about the SETVI herbicidal rating (SETVI Foxtail, Green; rate 0.032 kg/ha) of the same compound?
Answer: Its SETVI herbicidal rating is 9.0.

Question: What about the SETVI herbicidal rating (SETVI Foxtail, Green; rate 0.062 kg/ha) of the same compound?
Answer: Its SETVI herbicidal rating is 9.0.

Question: And the SETVI herbicidal rating (SETVI Foxtail, Green; rate 0.125 kg/ha)?
Answer: Its SETVI herbicidal rating is 9.0.

Question: What about the GLXMAW herbicidal rating (GLXMAW Soybean, Williams; rate 0.016 kg/ha) of the same compound?
Answer: Its GLXMAW herbicidal rating is 3.0.

Question: And the GLXMAW herbicidal rating (GLXMAW Soybean, Williams; rate 0.032 kg/ha)?
Answer: Its GLXMAW herbicidal rating is 4.5.

Question: And the GLXMAW herbicidal rating (GLXMAW Soybean, Williams; rate 0.062 kg/ha)?
Answer: Its GLXMAW herbicidal rating is 7.5.

Question: What about the GLXMAW herbicidal rating (GLXMAW Soybean, Williams; rate 0.125 kg/ha) of the same compound?
Answer: Its GLXMAW herbicidal rating is 9.0.

Question: And the TRZAWR herbicidal rating ([3]; rate 0.016 kg/ha)?
Answer: The TRZAWR herbicidal rating was 2.0.

Question: And the TRZAWR herbicidal rating ([3]; rate 0.032 kg/ha)?
Answer: Its TRZAWR herbicidal rating is 3.0.

Question: What about the TRZAWR herbicidal rating ([3]; rate 0.062 kg/ha) of the same compound?
Answer: Its TRZAWR herbicidal rating is 6.0.

Question: And the TRZAWR herbicidal rating ([3]; rate 0.125 kg/ha)?
Answer: Its TRZAWR herbicidal rating is 7.0.

Question: What about the ORYSAT herbicidal rating (ORYSAT Rice, Tebonnet; rate 0.016 kg/ha) of the same compound?
Answer: Its ORYSAT herbicidal rating is 3.0.

Question: And the ORYSAT herbicidal rating (ORYSAT Rice, Tebonnet; rate 0.032 kg/ha)?
Answer: The ORYSAT herbicidal rating was 6.0.

Question: And the ORYSAT herbicidal rating (ORYSAT Rice, Tebonnet; rate 0.062 kg/ha)?
Answer: The ORYSAT herbicidal rating was 6.0.

Question: And the ORYSAT herbicidal rating (ORYSAT Rice, Tebonnet; rate 0.125 kg/ha)?
Answer: The ORYSAT herbicidal rating was 6.0.

Question: And the ZEAMX herbicidal rating (ZEAMX Corn, Field; rate 0.016 kg/ha)?
Answer: The ZEAMX herbicidal rating was 5.0.

Question: And the ZEAMX herbicidal rating (ZEAMX Corn, Field; rate 0.032 kg/ha)?
Answer: Its ZEAMX herbicidal rating is 5.0.

Question: And the ZEAMX herbicidal rating (ZEAMX Corn, Field; rate 0.062 kg/ha)?
Answer: The ZEAMX herbicidal rating was 7.0.

Question: And the ZEAMX herbicidal rating (ZEAMX Corn, Field; rate 0.125 kg/ha)?
Answer: Its ZEAMX herbicidal rating is 8.5.

Question: And the melting point?
Answer: Its melting point is 175 to 181 °C.
